28 molecules from patent US20230081390A1, “INHIBITORS OF RAF KINASES” (Kinnate Biopharma Inc., priority 2019, published 2023) can be followed below.

pIC50: −log10 of the molar value.

Broadly, the pIC50 is the IC50 on a negative log10 scale, so that one unit is a factor of ten.

The target of the assay is human RAF1 (Homo sapiens, UniProt P04049). The experiment in a line: Protein kinase assay (33P-ATP filter binding), human RAF1, 10-dose IC50. Format: biochemical. The conditions noted are these: MEK1 (K97R) substrate 3 micromolar, ATP 10 micromolar, read-out: RAF-1 IC50. The essentials:
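Radiometric filter-binding format: 10 µM ATP, 3 µM MEK1 (K97R) as substrate for human RAF1, 2 hr at room temperature in 20 mM HEPES pH 7.5 with 10 mM MgCl2. Compounds were dispensed acoustically from DMSO. IC50 came from percent kinase activity relative to vehicle over a 10-dose series.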

Chain of human RAF1 (P04049 whole entry): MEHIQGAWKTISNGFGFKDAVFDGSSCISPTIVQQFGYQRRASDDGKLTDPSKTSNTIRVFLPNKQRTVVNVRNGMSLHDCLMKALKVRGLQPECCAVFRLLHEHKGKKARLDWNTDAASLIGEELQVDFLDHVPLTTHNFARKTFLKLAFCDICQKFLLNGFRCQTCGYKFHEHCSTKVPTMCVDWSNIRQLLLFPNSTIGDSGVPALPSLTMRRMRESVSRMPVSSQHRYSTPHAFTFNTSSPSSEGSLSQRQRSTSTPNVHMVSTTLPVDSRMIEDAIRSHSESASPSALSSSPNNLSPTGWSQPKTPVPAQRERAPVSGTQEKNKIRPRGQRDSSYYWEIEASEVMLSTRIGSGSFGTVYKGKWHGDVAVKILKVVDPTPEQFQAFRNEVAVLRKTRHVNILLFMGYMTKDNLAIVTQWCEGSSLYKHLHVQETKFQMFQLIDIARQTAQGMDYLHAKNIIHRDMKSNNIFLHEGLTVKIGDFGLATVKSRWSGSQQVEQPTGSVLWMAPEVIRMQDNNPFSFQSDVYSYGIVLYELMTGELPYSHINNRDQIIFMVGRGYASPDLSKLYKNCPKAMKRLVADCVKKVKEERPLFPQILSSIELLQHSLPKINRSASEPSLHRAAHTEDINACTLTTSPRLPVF

As for `Cc1ccc(NC(=O)N2CC[C@@H](SC(F)(F)F)C2)cc1-c1cnc(OC2CCOCC2)c(N2CCOCC2)c1` [Example 131, (3R)-N-[4-methyl-3-[5-(morpholin-4-yl)-6-(oxan-4-yloxy)pyridin-3-yl]phenyl]-3-[(trifluoromethyl)sulfanyl]pyrrolidine-1-carboxamide], the pIC50 was over 8.00. For `Cc1ccc(NC(=O)N2CC[C@H](SC(F)(F)F)C2)cc1-c1cnc(OC2CCOCC2)c(N2CCOCC2)c1` [Example 132, (3S)-N-[4-methyl-3-[5-(morpholin-4-yl)-6-(oxan-4-yloxy)pyridin-3-yl]phenyl]-3-[(trifluoromethyl)sulfanyl]pyrrolidine-1-carboxamide] the value was over 8.00. For `Cc1ccc(NC(=O)N2CC[C@@H](OCC(F)(F)F)C2)cc1-c1cc(OCCO)nc(N2CCOCC2)c1` [Example 133, (3R)-N-[3-[2-(2-hydroxyethoxy)-6-(morpholin-4-yl)pyridin-4-yl]-4-methylphenyl]-3-(2,2,2-trifluoroethoxy)pyrrolidine-1-carboxamide] the value was over 8.00. Turning to `Cc1ccc(NC(=O)N2CCC(S(=O)(=O)C(F)(F)F)C2)cc1-c1cc(OCCO)nc(N2CCOCC2)c1` (stereo not shown) [Example 134, N-[3-[2-(2-hydroxyethoxy)-6-(morpholin-4-yl)pyridin-4-yl]-4-methylphenyl]-3-trifluoromethanesulfonylpyrrolidine-1-carboxamide], the pIC50 is over 8.00. For `Cc1ccc(NC(=O)Nc2cnn(CC(F)(F)F)c2)cc1-c1cc(OCCO)nc(N2CCOCC2)c1` [Example 135, 1-[3-[2-(2-hydroxyethoxy)-6-(morpholin-4-yl)pyridin-4-yl]-4-methylphenyl]-3-[1-(2,2,2-trifluoroethyl)pyrazol-4-yl]urea] the value was over 8.00; for `Cc1ccc(NC(=O)N2CC/C(=C\C(F)(F)F)C2)cc1-c1cc(OCCO)nc(N2CCOCC2)c1` [Example 136, (3E)-N-[3-[2-(2-hydroxyethoxy)-6-(morpholin-4-yl)pyridin-4-yl]-4-methylphenyl]-3-(2,2,2-trifluoroethylidene)pyrrolidine-1-carboxamide], over 8.00. Take `Cc1ccc(NC(=O)N2CC[C@H](OCC(F)(F)F)C2)cc1-c1cc(OCCO)nc(N2CCOCC2)c1` [Example 137, (3S)-N-[3-[2-(2-hydroxyethoxy)-6-(morpholin-4-yl)pyridin-4-yl]-4-methylphenyl]-3-(2,2,2-trifluoroethoxy)pyrrolidine-1-carboxamide]: the negative logarithm of the IC50 (pIC50) is over 8.00. With `Cc1ccc(NC(=O)N2CC[C@H](OC(C)C)C2)cc1-c1cc(OCCO)nc(N2CCOCC2)c1` [Example 138, (3S)-N-[3-[2-(2-hydroxyethoxy)-6-(morpholin-4-yl)pyridin-4-yl]-4-methylphenyl]-3-isopropoxypyrrolidine-1-carboxamide], the pIC50 was over 8.00. For `Cc1ccc(NC(=O)Nc2cnn(C(C)C)c2)cc1-c1cc(OCCO)nc(N2CCOCC2)c1` [Example 139, 1-[3-[2-(2-hydroxyethoxy)-6-(morpholin-4-yl)pyridin-4-yl]-4-methylphenyl]-3-(1-isopropylpyrazol-4-yl)urea], the pIC50 is over 8.00. Consider `Cc1ccc(NC(=O)N2CC[C@H](OC(C)(F)F)C2)cc1-c1cc(OCCO)nc(N2CCOCC2)c1` [Example 140, (3S)-3-(1,1-difluoroethoxy)-N-[3-[2-(2-hydroxyethoxy)-6-(morpholin-4-yl)pyridin-4-yl]-4-methylphenyl]pyrrolidine-1-carboxamide], for which the pIC50 is over 8.00.

As to `Cc1ccc(NC(=O)N(C)c2cnn(C(F)(F)F)c2)cc1-c1cc(OCCO)nc(N2CCOCC2)c1` [Example 141, 1-[3-[2-(2-hydroxyethoxy)-6-(morpholin-4-yl)pyridin-4-yl]-4-methylphenyl]-3-methyl-3-[1-(trifluoromethyl)pyrazol-4-yl]urea], the pIC50 is over 8.00.

As for `Cc1ccc(NC(=O)N2CC[C@H](OC(F)(F)F)C2)cc1-c1cc(OC[C@H](O)CO)nc(N2CCOCC2)c1` [Example 142, (3S)-N-(3-[2-[(2R)-2,3-dihydroxypropoxy]-6-(morpholin-4-yl)pyridin-4-yl]-4-methylphenyl)-3-(trifluoromethoxy)pyrrolidine-1-carboxamide], the pIC50 is over 8.00. The value for `Cc1ccc(NC(=O)N2CC[C@H](OC(F)(F)F)C2)cc1-c1cc(OC[C@@H](O)CO)nc(N2CCOCC2)c1` [Example 143, (3S)-N-(3-[2-[(2S)-2,3-dihydroxypropoxy]-6-(morpholin-4-yl)pyridin-4-yl]-4-methylphenyl)-3-(trifluoromethoxy)pyrrolidine-1-carboxamide] was over 8.00; that for `Cc1ccc(NC(=O)N2C[C@@H](OC(F)(F)F)CO2)cc1-c1cc(OCCO)nc(N2CCOCC2)c1` [Example 144, (4R)-N-[3-[2-(2-hydroxyethoxy)-6-(morpholin-4-yl)pyridin-4-yl]-4-methylphenyl]-4-(trifluoromethoxy)-1,2-oxazolidine-2-carboxamide] was over 8.00.

For `Cc1ccc(NC(=O)N2CCC(=C3CC3)C2)cc1-c1cc(OCCO)nc(N2CCOCC2)c1` [Example 145, 3-cyclopropylidene-N-[3-[2-(2-hydroxyethoxy)-6-(morpholin-4-yl)pyridin-4-yl]-4-methylphenyl]pyrrolidine-1-carboxamide], the negative-log IC50 (pIC50) was over 8.00. For the molecule `Cc1ccc(NC(=O)N2CC(OC(F)(F)F)CN2)cc1-c1cc(OCCO)nc(N2CCOCC2)c1` (stereo not shown) [Example 146, N-[3-[2-(2-hydroxyethoxy)-6-(morpholin-4-yl)pyridin-4-yl]-4-methylphenyl]-4-(trifluoromethoxy) pyrazolidine-1-carboxamide], the pIC50 is over 8.00. Turning to `Cc1ccc(NC(=O)n2ccc(C(=O)C(F)(F)F)c2)cc1-c1cc(OCCO)nc(N2CCOCC2)c1` [Example 147, N-[3-[2-(2-hydroxyethoxy)-6-(morpholin-4-yl)pyridin-4-yl]-4-methylphenyl]-3-(2,2,2-trifluoroacetyl)pyrrole-1-carboxamide], the pIC50 is 5.00 to 6.00.

With `Cc1ccc(NC(=O)N2CC(O)C(CC(F)(F)F)C2)cc1-c1cc(OCCO)nc(N2CCOCC2)c1` (stereo not shown) [Example 148, 3-hydroxy-N-[3-[2-(2-hydroxyethoxy)-6-(morpholin-4-yl)pyridin-4-yl]-4-methylphenyl]-4-(2,2,2-trifluoroethyl)pyrrolidine-1-carboxamide], the pIC50 is over 8.00. For the molecule `Cc1ccc(NC(=O)N2CC[C@@H](OC(F)(F)F)C2)cc1-c1cc(OCC(C)(C)O)nc(N2CCOCC2)c1` [Example 149, (3R)-N-[3-[2-(2-hydroxy-2-methylpropoxy)-6-(morpholin-4-yl)pyridin-4-yl]-4-methylphenyl]-3-(trifluoromethoxy)pyrrolidine-1-carboxamide], the pIC50 was over 8.00. Take `Cc1ccc(NC(=O)N2CC[C@H](OC(F)(F)F)C2)cc1-c1cc(OC[C@H](C)O)nc(N2CCOCC2)c1` [Example 150, (3S)-N-(3-[2-[(2S)-2-hydroxypropoxy]-6-(morpholin-4-yl)pyridin-4-yl]-4-methylphenyl)-3-(trifluoromethoxy)pyrrolidine-- carboxamide]: the pIC50 is over 8.00. In the case of `Cc1ccc(NC(=O)N2CC[C@H](OC(F)(F)F)C2)cc1-c1cc(O[C@@H](C)CO)nc(N2CCOCC2)c1` [Example 151, (3S)-N-[3-(2-[[(2S)-1-hydroxypropan-2-yl]oxy]-6-(morpholin-4-yl)pyridin-4-yl)-4-methylphenyl]-3-(trifluoromethoxy)pyrrolidine-1-carboxamide], the negative-log IC50 (pIC50) was over 8.00. Take `Cc1ccc(NC(=O)N2CC[C@H](OC(F)(F)F)C2)cc1-c1cc(OCC(C)(C)O)nc(N2CCOCC2)c1` [Example 154, (3S)-N-[3-[2-(2-hydroxy-2-methylpropoxy)-6-(morpholin-4-yl)pyridin-4-yl]-4-methylphenyl]-3-(trifluoromethoxy)pyrrolidine-1-carboxamide]: the pIC50 was over 8.00. As to `Cc1ccc(NC(=O)N2CC[C@H](OC(F)(F)F)C2)cc1-c1cc(OC[C@@H](C)O)nc(N2CCOCC2)c1` [Example 155, (3S)-N-(3-[2-[(2R)-2-hydroxypropoxy]-6-(morpholin-4-yl)pyridin-4-yl]-4-methylphenyl)-3-(trifluoromethoxy)pyrrolidine-1-carboxamide], the pIC50 is over 8.00. For `Cc1ccc(NC(=O)N(C)c2cnn(C(F)(F)F)c2)cc1-c1cc(OC[C@@H](C)O)nc(N2CCOCC2)c1` [Example 156, 1-(3-[2-[(2R)-2-hydroxypropoxy]-6-(morpholin-4-yl)pyridin-4-yl]-4-methylphenyl)-3-methyl-3-[1-(trifluoromethyl)pyrazol-4-yl]urea], the pIC50 is over 8.00. Consider `Cc1ccc(NC(=O)N2CCC3(C2)CC(F)(F)C3)cc1-c1cc(OCCO)nc(N2CCOCC2)c1` [Example 167, 2,2-difluoro-N-(3-(2-(2-hydroxyethoxy)-6-morpholinopyridin-4-yl)-4-methylphenyl)-6-azaspiro[3.4]octane-6-carboxamide], for which the pIC50 is over 8.00. The value for `Cc1cc(F)c(NC(=O)N2CCS[C@H](C(F)(F)F)C2)cc1-c1cc(OCCO)nc(N2CCOCC2)c1` [Example 168, (S)-N-(2-fluoro-5-(2-(2-hydroxyethoxy)-6-morpholinopyridin-4-yl)-4-methylphenyl)-2-(trifluoromethyl)thiomorpholine-4-carboxamide] was over 8.00; that for `Cc1cc(F)c(NC(=O)N2CCS[C@@H](C(F)(F)F)C2)cc1-c1cc(OCCO)nc(N2CCOCC2)c1` [Example 169, (R)-N-(2-fluoro-5-(2-(2-hydroxyethoxy)-6-morpholinopyridin-4-yl)-4-methylphenyl)-2-(trifluoromethyl)thiomorpholine-4-carboxamide] was over 8.00; that for `Cc1ccc(NC(=O)N2CC[C@H](OC(F)(F)F)C2)cc1-c1cc(OC(C)(C)CO)nc(N2CCOCC2)c1` [Example 170, (3S)-N-(3-[2-[(1-hydroxy-2-methylpropan-2-yl)oxy]-6-(morpholin-4-yl)pyridin-4-yl]-4-methylphenyl)-3-(trifluoromethoxy)pyrrolidine-1-carboxamide] was over 8.00.
